We go through 1 compound from PMC5460289, “Identification of New Shikonin Derivatives as Antitumor Agents Targeting STAT3 SH2 Domain” (Scientific Reports, 2017).

Molecules are shown by their SMILES.

One may read the CC50 as the concentration at which the toxic effect on the cells reaches its halfway point. Read a low CC50 as harm at low concentration.

Data set [1] in a line: MTT anti-proliferation assay, non-tumorigenic cells. Conditions: human, non-tumorigenic MCF-10A cells, 24 h treatment. The data set is classed as cell-based. As for the experimental part:
Initial experiments were performed for evaluation of growth inhibition by the new compounds against six human breast cancer cell lines, including MCF-7 (ER+/PR+, HER-2-), BT474 (ER+/PR+, HER-2+), SKBR-3 (ER-/PR-/HER-2+), MDA-MB-436 (ER-/PR-/HER-2-), MDA-MB-231 (ER-/PR-/HER-2-), MDA-MB-468 (ER-/PR-/HER-2-) and non-tumorigenic MCF-10A cells. After 24 h treatment by the obtained compounds, the inhibition was assessed and the IC50 was summarized. […] Subsequently, the inhibition of STAT3 activation by PMM-172 and Stattic was evaluated using a dual-luciferase assay.
The anti-proliferative activities of the prepared compounds against MCF-7 (ER+/PR+, HER-2-), BT474 (ER+/PR+, HER-2+), SKBR-3 (ER-/PR-/HER-2+), MDA-MB-436 (ER-/PR-/HER-2-), MDA-MB-231 (ER-/PR-/HER-2-), MDA-MB-468 (ER-/PR-/HER-2-) and non-tumorigenic MCF-10A cell lines were evaluated using a standard (MTT)-based colorimetric assay with some modification. Cell lines were grown to log phase in DMEM supplemented with 10% fetal bovine serum. Cell suspensions were prepared and 100 μL/well dispensed into 96-well plates giving 10^4 cells/well. The subsequent incubation was permitted at 37 °C, 5% CO2 atmosphere for 24 h to allow the cells to reattach. Subsequently, cells were treated with the target compounds at increasing concentrations in the presence of 10% FBS for 24 h. Then, cell viability was assessed by the conventional 3-(4, 5-dimethylthiazol-2-yl)-2, 5-diphenyltetrazolium bromide (MTT) reduction assay and carried out strictly according to the manufacturer instructions. The absorbance (OD570) was read on an ELISA reader (Tecan, Austria). In all experiments, three replicate wells were used for each drug concentration. Each assay was carried out for at least three times.

Data set [2] has as its system STAT3-TATA-Luc reporter in MDA-MB-231 cells. Briefly: STAT3 dual-luciferase reporter assay. Conditions: MDA-MB-231, 24 h treatment. The data set is classed as cell-based, human. As for the experimental part:
Figure 3 MDA-MB-231 cells were transfected with STAT3-TATA-Luc reporter and Renilla luciferase reporter plasmids. After 24 h, cells were treated with indicated concentrations of PMM-172 or Stattic for 24 h and then luciferase intensity was measured. Results are fold change ± SD of three independent experiments, *P < 0.05, **P < 0.01.
Cells were seeded in 24 well plates and transiently transfected together with STAT3 reporter plasmid 4 × M67 pTATA TK-Luc (0.2 μg/per well, Addgene, USA) and Renilla luciferase control reporter plasmid pRL-CMV (0.1 μg/per well, promega, USA), using lipofectamine 2000 (Invitrogen, USA). Then the cells were incubated with complete medium for 24 h with PMM-172 or Stattic. Following the treatment, the cells were harvested in 100 μL of passive lysis buffer (Promega, USA) in each well. A 25 μL aliquot of cell lysate was subjected to a luciferase assay by using the dual-luciferase assay kit (Promega, USA). STAT3 luciferase activity was measured by EnVision Mutilabel Reader (Perkin Elmer, USA). Relative luciferase activity was calculated after the activity of STAT3-dependent firefly luciferase had been normalized to that of Renilla luciferase. All values are expressed as - fold induction relative to basal activity.

Data set [3] concerns pSTAT3 (Tyr705) in MDA-MB-231 cells. Briefly: Western blot of constitutive STAT3 activation. The data set is classed as cell-based, human. From the text: It has been well recognized that the aberrant activation of STAT3 contributes to malignant transformation and tumorgenesis, and its activity is ultimately dependent upon phosphorylation of residue Y705. […] In this study, the ability of PMM-172 and Stattic inhibiting the constitutive STAT3 activation in MDA-MB-231 cells was investigated. […] We further measured STAT3 phosphorylation at Tyr705 in a time-course experiment.
(§1) Figure 6 (A) PMM-172 suppressed constitutive pSTAT3 (Tyr705) in a dose-dependent manner. (B) PMM-172 suppressed constitutive pSTAT3 (Tyr705) in a time-dependent manner. (C) MDA-MB-231 cells were treated with IL-6 (20 ng/mL) or vehicle for 30 min, with or without pretreatment with PMM-172 (2 μM) for 24 h. PMM-172 inhibited IL-6 induced phosphorylation of STAT3. (D) Stattic suppressed constitutive pSTAT3 (Tyr705) in a dose-dependent manner. (E) Stattic suppressed constitutive pSTAT3 (Tyr705) in a time-dependent manner. (F) Tyrosine phosphorylation of two STAT family proteins STAT1 and STAT5 were detected with specific antibodies. […] Data were shown as mean ± SD of three independent experiments. *P < 0.05, **P < 0.01. Cropped blots/gels were used in the figure and the gels had been run under the same experimental conditions; the full-length blots/gels are presented in Supplementary Figure S2.
Cells were rinsed twice with cold PBS and then lysed with RIPA buffer containing a protease inhibitor mixture at 1:100 dilution on ice for 30 min. Insoluble components of cell lysates were removed by centrifugation (4 °C, 12000 rmp, 10 min), and protein concentrations were measured using a Pierce BCA protein assay kit. Proteins were separated by sodium dodecyl sulfate-polyacrylamide gel electrophoresis (SDS-PAGE) and transferred from the gel onto polyvinylidene difluoride (PVDF) membranes. The membranes were blocked with 5% skim milk in TBST buffer for 1 h at room temperature, and then incubated with corresponding primary antibodies diluted in 5% milk-TBST solution at 4 °C with gentle shaking overnight. After washing five times (5 min each), corresponding HRP-conjugated secondary antibodies were incubated for 1 h at room temperature. Immunoreactive bands were visualized using an ECL detection kit (Invitrogen, USA) following the manufacturer’s instruction.

The subject of another data set is STAT1. Briefly: Western blot of STAT1 phosphorylation and expression. The data set is classed as cell-based, human. Conditions: MDA-MB-231. On the procedure: as §1
Subsequently, we evaluated the phosphorylation level of other STAT family proteins including STAT1 and STAT5.
(§2) Cells were rinsed twice with cold PBS and then lysed with RIPA buffer containing a protease inhibitor mixture at 1:100 dilution on ice for 30 min. Insoluble components of cell lysates were removed by centrifugation (4 °C, 12000 rmp, 10 min), and protein concentrations were measured using a Pierce BCA protein assay kit. […]

Data set [4] deals with Bcl-2, Bcl-xL, survivin and cyclin D1 in MDA-MB-231 cells. The experiment in a line: Western blot of STAT3 downstream target genes expression. The note with it: MDA-MB-231, 24 h. The data set is classed as cell-based, human. As for the experimental part: Figure 7 MDA-MB-231 cells were treated with indicated concentrations of PMM-172 or Stattic for 24 h, the expression levels of STAT3 in cytoplasmic and nuclear extracts were examined and relative expression levels were analyzed by Image J software. β-actin and Lamin B1 served as markers of cytoplasmic and nuclear extractions, respectively. […] (C) MCF-10A cells were treated with the indicated concentrations of PMM-172 for 24 h. PMM-172 had no effect on the level of the pSTAT3 level in MCF-10A cells. […] Data were shown as mean ± SD from three independent experiments, **P < 0.01. Cropped blots/gels were used in the figure and the gels had been run under the same experimental conditions; the full-length blots/gels are presented in Supplementary Figure S3.
STAT3 target genes are vital to the dysfunctional biology processes induced by the aberrantly activated STAT3. Therefore, we investigated whether PMM-172 suppresses the expression of STAT3-regulated genes related to cell survival, proliferation and apoptosis in MDA-MB-231 cells.
as §2
(In general: Immunoblotting shows a protein as a band on a membrane.)

For the compound `COc1cc(OC)cc(-c2nnc(SCC(=O)O[C@H](CC=C(C)C)C3=CC(=O)c4c(O)ccc(O)c4C3=O)o2)c1` [PMM-172, (R)-1-(5,8-dihydroxy-1,4-dioxo-1,4-dihydronaphthalen-2-yl)-4-methylpent-3-en-1-yl 2-((5-(3,5-dimethoxyphenyl)-1,3,4-oxadiazol-2-yl)thio)acetate], the CC50 at 24 h in data set [1] turned out to be 95.4 ± 0.62 µM. For the same compound, the STAT3 luciferase activity entry in data set [2] is reported as “decreased the STAT3 luciferase activity in a dose-dependent manner”. Further, in data set [3], the STAT3 expression entry is “had no effect on STAT3 expression”; the “STAT3 phosphorylation at Tyr705, time-course” value is on record as “reduced with the longer treatment”; the “level of Y705-phosphorylated STAT3 (constitutive), dose series” value is reported as “could reduce the level of Y705-phosphorylated STAT3 in MDA-MB-231 cells in a dose-dependent manner”. Also, the “phosphorylation and expression of STAT1” value in the data set on STAT1 is recorded as “inhibited neither the phosphorylation nor expression”. For the same compound, the “expression of STAT3 target genes Bcl-2, Bcl-xL, survivin and cyclin D1” value in data set [4] was “down-regulated the expression of Bcl-2, Bcl-xL, survivin and cyclin D1 in a dose-dependent manner”.
